From US20230250095A1, “BENZIMIDAZOLE DERIVATIVES, PREPARATION METHOD THEREFOR AND MEDICAL USE THEREOF” (TUOJIE BIOTECH(SHANGHAI) CO., LTD., priority 2020, published 2023)

target: T1, hP2X2/3 (Homo sapiens, UniProt P56373+Q9UBL9); assay: FLIPR calcium flux assay, antagonistic activity against hP2X2/3 receptor; format: cell-based; settings: 1321N1/hP2X2/3 cells, agonist α,β-meATP 1000 nM
T1 construct: host or cells: 1321N1 cells
T1 sequence (Q9UBL9 1-471): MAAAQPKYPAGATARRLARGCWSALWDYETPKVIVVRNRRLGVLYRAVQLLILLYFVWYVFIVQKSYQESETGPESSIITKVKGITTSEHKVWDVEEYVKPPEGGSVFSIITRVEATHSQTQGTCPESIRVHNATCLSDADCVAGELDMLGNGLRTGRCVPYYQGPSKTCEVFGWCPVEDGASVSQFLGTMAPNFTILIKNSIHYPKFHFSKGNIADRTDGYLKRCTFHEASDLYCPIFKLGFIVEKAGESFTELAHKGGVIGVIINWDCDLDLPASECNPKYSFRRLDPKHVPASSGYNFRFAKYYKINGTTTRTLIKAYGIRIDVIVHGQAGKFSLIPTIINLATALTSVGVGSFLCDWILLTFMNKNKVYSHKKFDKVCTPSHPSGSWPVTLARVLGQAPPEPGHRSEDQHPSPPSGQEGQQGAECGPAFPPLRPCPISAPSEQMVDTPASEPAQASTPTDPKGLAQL
T1 sequence (P56373 1-397): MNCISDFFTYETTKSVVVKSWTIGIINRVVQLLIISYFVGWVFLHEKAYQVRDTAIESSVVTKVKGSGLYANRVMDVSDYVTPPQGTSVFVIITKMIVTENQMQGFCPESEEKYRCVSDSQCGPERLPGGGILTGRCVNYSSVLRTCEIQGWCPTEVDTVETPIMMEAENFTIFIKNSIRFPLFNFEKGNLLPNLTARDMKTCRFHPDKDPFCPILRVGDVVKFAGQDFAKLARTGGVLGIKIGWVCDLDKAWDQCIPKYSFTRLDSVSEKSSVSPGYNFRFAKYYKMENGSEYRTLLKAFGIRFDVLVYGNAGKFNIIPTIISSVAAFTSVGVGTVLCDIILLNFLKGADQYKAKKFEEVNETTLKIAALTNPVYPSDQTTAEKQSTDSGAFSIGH
Experimental: (§1) The compounds were screened for antagonistic activity against hP2X3 and hP2X2/3 receptors (changes in calcium flux signals represent the effect of the compounds on ion channels) by an FLIPR assay.
(§2) 1321N1 cells (adherent cells) stably transfected with hP2X3 and hP2X2/3 receptors were digested, centrifuged, resuspended in a plating medium (DMEM+10% DFBS) and counted, adjusted to 2×10^5 cells/mL. The cells were seeded in a 384-well assay plate at 50 μL/well, and incubated in an incubator at 37° C. with 5% CO2 for 16-24 h. Test compounds (20 mM DMSO stock solution) that were 180 times the desired concentration were prepared with DMSO, and added to a 384-well compound plate at 500 nL/well. Then, each well was supplemented with 30 μL of FLIPR buffer (lx HBSS containing 1.26 mM Ca^2++2 mM CaCl2)+20 mM HEPES), and the mixture was shaken for 20-40 min to be mixed well. The agonist α,β-meATP (final concentration of 500 nM for hP2X3 cells and final concentration of 1000 nM for hP2X2/3 cells) that was 3 times the desired concentration was prepared with an FLIPR buffer, and added to another 384-well compound plate at 35 μL/well. The cell plate in which cells had been plated and cultured for 16-24 h was taken out, and the cell supernatant was removed by pipetting. 30 μL of dye (FLIPR® calcium 4 assay kit, diluted with an FLIPR buffer) was added to each well, and the plate was incubated for 1 h. 15 μL of the compound was added to each well containing cells (dosing using an FLIPR instrument), and after 15 min, 22.5 μL of agonist was added to each well and the fluorescent signal was detected (excitation wavelength: 470-495 nm, emission wavelength: 515-575 nm). With the difference between the peak and the trough of the signal taken as the basic data, the data of the highest concentration of the positive drug taken as the 100% inhibition rate, and the data of DMSO taken as the 0% inhibition rate, the inhibition effect curves of the compounds were fitted on the software Graphpad Prism 6 and IC50 values were calculated.

Row | SMILES | IC50
1 | CCC(=O)N1CCO[C@@H](Cn2c(-c3c(Cl)cc4c(c3F)OCC(=O)N4)nc3cc(C)ccc32)C1 [Compound 17, (S)-6-chloro-8-fluoro-7-(5-methyl-1-((4-propionylmorpholin-2-yl)methyl)-1H-benzo[d]imidazol-2-yl)-2H-benzo[b][1,4]oxazin-3(4H)-one] | 3500 nM

tested on: not listed separately; assay: In vitro metabolic stability in human hepatocytes; format: in vitro ADME; settings: human hepatocytes 1×10^6 cells/mL, 37° C., up to 120 min; read-out: Intrinsic clearance (uL/min/10^6 cells)
Experimental: The concentrations of the test compounds in the reaction system were determined by LC/MS/MS, so that the intrinsic clearance of the test compounds was calculated, and the in vitro metabolic stability in human hepatocytes was evaluated.
247.5 μL of a mixed solution of human hepatocytes at 1×10^6 cells/mL (purchased from BioreclamationIVT, Cat. No. S01205) and 2.5 μL of 100 μM test compound or positive control was added to a plate to initiate the reaction. The plate was incubated at 37° C. and 600 rpm. 20 μL of incubation system was transferred to a stop plate at 0.5 min, 5 min, 15 min, 30 min, 45 min, 60 min, 80 min, 100 min and 120 min. Then, the mixture was vortexed for 2 min to be mixed well. The stop plate was centrifuged at 4000 rpm for 20 min. 40 μL of supernatant of each compound was transferred to a 96-well sample template, after which 160 μL of pure water was added to dilute the samples.
The resulting samples were quantified from ion chromatogram. The residual rate was calculated from the peak area of the test compound or the positive control. Slope k was determined by linear regression of the […] of residual rates versus incubation time using Microsoft Excel.
Intrinsic clearance (in vitro CLint, μL/min/10^6 cells) was calculated from the slope value according to the following equation:
V=incubation volume (0.25 mL);
N=number of cells per well (0.25×10^6 cells)

Row | SMILES | hepatocyte CLint at 1 μM
2 | CCC(=O)N1CCO[C@@H](Cn2c(-c3c(Cl)cc4c(c3F)OCC(=O)N4)nc3cc(C)ccc32)C1 [Compound 17, (S)-6-chloro-8-fluoro-7-(5-methyl-1-((4-propionylmorpholin-2-yl)methyl)-1H-benzo[d]imidazol-2-yl)-2H-benzo[b][1,4]oxazin-3(4H)-one] | 4.1 µL/min/1e6 cells

target: T2, hP2X3 (Homo sapiens, UniProt P56373); assay: FLIPR calcium flux assay, antagonistic activity against hP2X3 receptor; format: cell-based; settings: 1321N1/hP2X3 cells, agonist α,β-meATP 500 nM
T2 construct: host or cells: 1321N1 cells
T2 sequence (P56373 1-397): T1 sequence (P56373 1-397)
Experimental: as §1, §2

Row | SMILES | IC50
3 | CC(=O)N1CCO[C@@H](Cn2c(-c3c(F)cc(N4CCCC4=O)cc3F)nc3cc(C(F)F)ccc32)C1 [Compound 5, (S)-1-(4-(1-((4-acetylmorpholin-2-yl)methyl)-5-(difluoromethyl)-1H-benzo[d]imidazol-2-yl)-3,5-difluorophenyl)pyrrolidin-2-one] | 100 nM
4 | CNC(=O)c1cc(F)c(-c2nc3cc(C)cnc3n2C[C@H]2CN(C(=O)OC)CCO2)c(F)c1 [Compound 6, Methyl (S)-2-((2-(2,6-difluoro-4-(methylcarbamoyl)phenyl)-6-methyl-3H-imidazo[4,5-b]pyridin-3-yl)methyl)morpholine-4-carboxylate] | > 10000 nM
5 | CNC(=O)c1cc(F)c(-c2nc3nc(C)ccc3n2C[C@H]2CN(C(=O)OC)CCO2)c(F)c1 [Compound 7, Methyl (S)-2-((2-(2,6-difluoro-4-(methylcarbamoyl)phenyl)-5-methyl-1H-imidazo[4,5-b]pyridin-1-yl)methyl)morpholine-4-carboxylate] | 5840 nM
6 | CNC(=O)c1cc(F)c(-c2nc3cc(C)ncc3n2C[C@H]2CN(C(=O)OC)CCO2)c(F)c1 [Compound 8, Methyl (S)-2-((2-(2,6-difluoro-4-(methylcarbamoyl)phenyl)-6-methyl-3H-imidazo[4,5-c]pyridin-3-yl)methyl)morpholine-4-carboxylate] | > 10000 nM
7 | CC(=O)N1CCO[C@@H](Cn2c(-c3c(F)cc(N4CCCC4=O)cc3Cl)nc3cc(C)c(F)cc32)C1 [Compound 11, (S)-1-(4-(1-((4-acetylmorpholin-2-yl)methyl)-6-fluoro-5-methyl-1H-benzo[d]imidazol-2-yl)-3-chloro-5-fluorophenyl)pyrrolidin-2-one] | 79.4 nM
8 | CC(=O)N1CCO[C@@H](Cn2c(-c3c(F)cc(N4CCCC4=O)cc3Cl)nc3cc(Cl)c(F)cc32)C1 [Compound 12, (S)-1-(4-(1-((4-acetylmorpholin-2-yl)methyl)-5-chloro-6-fluoro-1H-benzo[d]imidazol-2-yl)-3-chloro-5-fluorophenyl)pyrrolidin-2-one] | 87.7 nM
9 | CC(=O)N1CCO[C@@H](Cn2c(-c3c(F)cc(N4CCCC4=O)cc3F)nc3cc(Cl)cc(F)c32)C1 [Compound 13, (S)-1-(4-(1-((4-acetylmorpholin-2-yl)methyl)-5-chloro-7-fluoro-1H-benzo[d]imidazol-2-yl)-3,5-difluorophenyl)pyrrolidin-2-one] | 766 nM
10 | Cc1ccc2c(c1)nc(-c1c(F)cc(N3CCCC3=O)cc1Cl)n2C[C@H]1CN(C(=O)C2CC2)CCO1 [Compound 15, (S)-1-(3-chloro-4-(1-((4-(cyclopropylcarbonyl)morpholin-2-yl)methyl)-5-methyl-1H-benzo[d]imidazol-2-yl)-5-fluorophenyl)pyrrolidin-2-one] | 85.1 nM
11 | Cc1ccc2c(c1)nc(-c1c(F)cc(N3CCCC3=O)cc1Cl)n2C[C@H]1CN(C(=O)CC(F)(F)F)CCO1 [Compound 16, (S)-1-(3-chloro-5-fluoro-4-(5-methyl-1-((4-(3,3,3-trifluoropropionyl)morpholin-2-yl)methyl)-1H-benzo[d]imidazol-2-yl)phenyl)pyrrolidin-2-one] | 70.5 nM
12 | CCC(=O)N1CCO[C@@H](Cn2c(-c3c(Cl)cc4c(c3F)OCC(=O)N4)nc3cc(C)ccc32)C1 [Compound 17, (S)-6-chloro-8-fluoro-7-(5-methyl-1-((4-propionylmorpholin-2-yl)methyl)-1H-benzo[d]imidazol-2-yl)-2H-benzo[b][1,4]oxazin-3(4H)-one] | 45.3 nM
